Assay results taken from ChEMBL document CHEMBL3603750, “Synthesis and biological evaluation of 9-N-oxamyl sialosides as Siglec-7 ligands” (Bioorg Med Chem, 2015).

Biological target: T1, Sialic acid-binding Ig-like lectin 7 (Homo sapiens, UniProt Q9Y286)
Experiment: Potency index, ratio of IC50 for compound-1 to IC50 for test compound for binding affinity to human IgG1-fused human Siglec-7-FC (Gln19 to Gly357 residues) assessed as inhibition Siglec-7-Fc binding to RBC pre-incubated for 10 mins before 20 mins incubation with RBCs by flow cytometry

T1 sequence (Q9Y286 whole entry, the tested form may be a part): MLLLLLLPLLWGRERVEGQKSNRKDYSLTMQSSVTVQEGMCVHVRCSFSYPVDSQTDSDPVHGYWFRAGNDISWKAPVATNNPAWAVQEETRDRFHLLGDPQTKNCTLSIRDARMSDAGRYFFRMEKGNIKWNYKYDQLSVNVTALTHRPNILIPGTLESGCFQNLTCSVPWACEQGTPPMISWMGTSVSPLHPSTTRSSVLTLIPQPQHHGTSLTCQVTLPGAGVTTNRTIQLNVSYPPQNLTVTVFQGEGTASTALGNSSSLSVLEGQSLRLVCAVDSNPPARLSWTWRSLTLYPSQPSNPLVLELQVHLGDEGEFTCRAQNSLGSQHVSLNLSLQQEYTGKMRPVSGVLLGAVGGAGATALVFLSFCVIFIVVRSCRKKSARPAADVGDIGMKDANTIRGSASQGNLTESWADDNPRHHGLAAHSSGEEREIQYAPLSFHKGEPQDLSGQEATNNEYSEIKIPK

Row | SMILES | Ratio IC50
1 | CCNC(=O)C(=O)NC[C@@H](O)[C@@H](O)[C@@H]1O[C@@](OC)(C(=O)O)C[C@H](O)[C@H]1NC(C)=O | < 2
2 | CO[C@]1(C(=O)O)C[C@H](O)[C@@H](NC(C)=O)[C@H]([C@H](O)[C@H](O)CNC(=O)C(=O)Nc2ccccc2)O1 | 58
3 | CO[C@]1(C(=O)O)C[C@H](O)[C@@H](NC(C)=O)[C@H]([C@H](O)[C@H](O)CNC(=O)C(=O)NC(C)C)O1 | < 2
4 | CO[C@]1(C(=O)O)C[C@H](O)[C@@H](NC(C)=O)[C@H]([C@H](O)[C@H](O)CNC(=O)C(N)=O)O1 | 4.1
5 | CO[C@]1(C(=O)O)C[C@H](O)[C@@H](NC(C)=O)[C@H]([C@H](O)[C@H](O)CNC(=O)C(=O)NC(C)(C)C)O1 | < 2
6 | CO[C@]1(C(=O)O)C[C@H](O)[C@@H](NC(C)=O)[C@H]([C@H](O)[C@H](O)CNC(=O)C(=O)NCc2ccccc2)O1 | 8
7 | CO[C@]1(C(=O)O)C[C@H](O)[C@@H](NC(C)=O)[C@H]([C@H](O)[C@H](O)CO)O1 | 1
8 | CCC(C)NC(=O)C(=O)NC[C@@H](O)[C@@H](O)[C@@H]1O[C@@](OC)(C(=O)O)C[C@H](O)[C@H]1NC(C)=O (mixture of isomers) | < 2
9 | CO[C@]1(C(=O)O)C[C@H](O)[C@@H](NC(C)=O)[C@H]([C@H](O)[C@H](O)CNC(=O)C(=O)NCc2ccc(-c3ccccc3)cc2)O1 | 8
10 | CNC(=O)C(=O)NC[C@@H](O)[C@@H](O)[C@@H]1O[C@@](OC)(C(=O)O)C[C@H](O)[C@H]1NC(C)=O | < 2

Biological target: T1, Sialic acid-binding Ig-like lectin 7
Experiment: Binding affinity to human IgG1-fused human Siglec-7-FC (Gln19 to Gly357 residues) assessed as inhibition Siglec-7-Fc binding to RBC pre-incubated for 10 mins before 20 mins incubation with RBCs by flow cytometry

Row | SMILES | IC50 [mM]
11 | CO[C@]1(C(=O)O)C[C@H](O)[C@@H](NC(C)=O)[C@H]([C@H](O)[C@H](O)CNC(=O)C(N)=O)O1 | 1.64
12 | CO[C@]1(C(=O)O)C[C@H](O)[C@@H](NC(C)=O)[C@H]([C@H](O)[C@H](O)CO)O1 | 8.07
